For the experiment, the system named is D-Trp34-NPY stimulated food intake. As to the kind of experiment: Screening for Y5 antagonist activity in vivo: D-Trp34-NPY stimulated food intake in rats. On the set-up: species or system Long-Evans or Sprague-Dawley rats. The note with it: rat, oral doses 0.1, 0.3, 1 and 3 mg/kg one hour before icv D-Trp34-NPY; food consumption monitored at 60, 120 and 240 min. How it is done: Method for Screening Compound 14 of Example 14 for Y5 Antagonist Activity In Vivo
Adult male Long-Evans or Sprague-Dawley rats (200-250 g, Charles River, Mass.) were maintained in individual cages at 22° C. on a 12 hr light/12 hr dark cycle with lights on at 0400. Rats had free access to food (Teklad Lab Rodent Chow, Bartonville, Ill.) and water. All studies were conducted in an AAALAC accredited facility following protocols approved by the Animal Care and Use Committee of the Schering-Plough Research Institute. The procedures were performed in accordance with the principles and guidelines established by the NIH for the care and use of laboratory animals.
Rats were anesthetized by intramuscular injection of a mixture of ketamine and xylazine (100 and 10 mg/kg, respectively). A 22 gauge stainless steel cannula was stereotaxically implanted into the lateral ventricle using the following coordinates: 1 mm posterior to bregma, 1.5 mm lateral to midline, 3.6 mm ventral to dura. After a three week recovery period, all animals were tested for correct cannula placement by intracerebroventricular (icv) infusion of human NPY ([…]). […] Food consumption was monitored at 60, 120 and 240 min after icv infusion of peptides. Differences in food intake between groups were determined by analysis of variance followed by Dunnett's multiple comparison test.

The record followed here is US6894063B2, “Substituted urea neuropeptide Y Y5 Receptor antagonists” (Schering Corporation, priority 2000, dated 2005).

Consider `CN(C(=O)Nc1ccc(-c2cc(F)cc(F)c2)cc1)C1CCN(c2nccs2)CC1` [Example 14], for which the “ID50, inhibition of D-Trp34-NPY stimulated food intake” value was 0.5 mg/kg.
